The text below walks through data of patent US7172751B2, “D-amino acid peptides” (Immunomedics, Inc., priority 2003, dated 2007).

For data set [1], the system named is GW-39 human colonic xenograft tumors. The experiment in a line: Biodistribution of 111In IMP 237 in mice pretargeted with hMN-14×m679. Conditions: pretargeting. The class given is in vivo. The text has this:
The animals were sacrificed at 3, 24, 48 hr post injection. The tumor to non-tumor ratios of the peptides in the pretargeting study are show in Table 2.

The procedure of data set [2]: A mixture of the labeled peptide and mouse serum was made and incubated at 37° C. The mouse serum was fresh nude mouse serum obtained from (GSCC on the same day). The Indium-labeled peptide solution (50 μL) and 450 μL of the mouse serum were combined and vortexed. This was incubated at 37° C. for 18.0 hrs. Injections were made into the reverse phase HPLC at t0=0 hrs and t1=18.0 hrs.
Aliquots were withdrawn at various time points and examined by reverse phase HPLC and by size exclusion HPLC.
The peptide was monitored as described above by HPLC.

A short description of data set [3]: Pretargeting biodistribution of 111In-IMP 241, 281, 284 after 125I-hMN-14×m679. Particulars: NCr nude, mouse, in vivo, total radioactivity. From the text:
NCr nudes: (NCI) from Taconic, 4 weeks of age
At the times shown above, 5 mice per time point will be necropsied. Tissues (tumor, liver, spleen, kidney, lungs, blood, stomach, large and small intestines) will be isolated, weighed and counted in the appropriate windows.

*1 amine or outer side, *2 acyl side, *3 side chain or, on linkers, in order; H or OH if unused. Where a SMILES comes first, the peptide text is derived from it. Side-chain parts run from the residue outwards. [ ]: non-standard residue; d: D form. The star is where a group is joined. DOTA = O=C(O)CN1CCN(CC(=O)O)CCN(CC(=O)*)CCN(CC(=O)O)CC1; NH(2-(imidazol-4-yl)ethyl) = c1ncc(CCN*)[nH]1; Suc = O=C(CCC(=O)[*:2])[*:1]

As to `NC(=O)[C@H](CCCCNC(=O)CNC(=O)CCC(=O)NCCc1cnc[nH]1)NC(=O)[C@H](Cc1ccc(O)cc1)NC(=O)[C@H](CCCCNC(=O)CNC(=O)CCC(=O)NCCc1cnc[nH]1)NC(=O)[C@H](Cc1ccccc1)NC(=O)CN1CCN(CC(=O)O)CCN(CC(=O)O)CCN(CC(=O)O)CC1` [IMP 237, DOTA-Phe-Lys(HSG)-Tyr-Lys(HSG)-NH2] ({DOTA}-FK([Gly-Suc-NH(2-(imidazol-4-yl)ethyl)])YK([Gly-Suc-NH(2-(imidazol-4-yl)ethyl)])-NH2), the “% Injected/g Tissue” value in data set [1] (Blood, 3 hr After 111In) worked out at 2.42 ± 0.61 % Injected/g Tissue; in data set [1] (Blood, 24 hr After 111In), 0.73 ± 0.17 % Injected/g Tissue; in data set [1] (Blood, 48 hr After 111In) it was 0.17 ± 0.06 % Injected/g Tissue; in data set [1] (GW-39, 3 hr After 111In), 7.25 ± 2.79 % Injected/g Tissue; in data set [1] (GW-39, 24 hr After 111In), 8.38 ± 1.70 % Injected/g Tissue; in data set [1] (GW-39, 48 hr After 111In), 5.39 ± 1.46 % Injected/g Tissue. In addition, the “% Injected/g Tissue” value stood at 3.59 ± 0.75 % Injected/g Tissue in data set [1] (Kidney, 3 hr After 111In); 2.24 ± 0.40 % Injected/g Tissue in data set [1] (Kidney, 24 hr After 111In); 1.27 ± 0.33 % Injected/g Tissue in data set [1] (Kidney, 48 hr After 111In); 0.17 ± 0.03 % Injected/g Tissue in data set [1] (Lg. Int., 24 hr After 111In); 0.13 ± 0.03 % Injected/g Tissue in data set [1] (Lg. Int., 48 hr After 111In); 0.58 ± 0.13 % Injected/g Tissue in data set [1] (Liver, 3 hr After 111In). Also, the “% Injected/g Tissue” value stood at 0.62 ± 0.09 % Injected/g Tissue in data set [1] (Liver, 24 hr After 111In); 0.61 ± 0.16 % Injected/g Tissue in data set [1] (Liver, 48 hr After 111In); 1.19 ± 0.26 % Injected/g Tissue in data set [1] (Lungs, 3 hr After 111In); 0.44 ± 0.10 % Injected/g Tissue in data set [1] (Lungs, 24 hr After 111In); 0.22 ± 0.06 % Injected/g Tissue in data set [1] (Lungs, 48 hr After 111In); 0.65 ± 0.74 % Injected/g Tissue in data set [1] (Sm. Int., 3 hr After 111In). Also, the “% Injected/g Tissue” value is listed as 0.18 ± 0.03 % Injected/g Tissue in data set [1] (Sm. Int., 24 hr After 111In); 0.11 ± 0.02 % Injected/g Tissue in data set [1] (Sm. Int., 48 hr After 111In); 0.50 ± 0.14 % Injected/g Tissue in data set [1] (Spleen, 3 hr After 111In); 0.71 ± 0.16 % Injected/g Tissue in data set [1] (Spleen, 24 hr After 111In); 0.57 ± 0.15 % Injected/g Tissue in data set [1] (Spleen, 48 hr After 111In); 0.18 ± 0.03 % Injected/g Tissue in data set [1] (Stomach, 3 hr After 111In). Besides, the “converted to the shorter retention time peak” value in data set [2] is given as “about 70%”.
With `NC(=O)[C@H](CCCCNC(=O)CNC(=O)CCC(=O)NCCc1cnc[nH]1)NC(=O)[C@@H](Cc1ccc(O)cc1)NC(=O)[C@H](CCCCNC(=O)CNC(=O)CCC(=O)NCCc1cnc[nH]1)NC(=O)[C@H](Cc1ccccc1)NC(=O)CN1CCN(CC(=O)O)CCN(CC(=O)O)CCN(CC(=O)O)CC1` [IMP 241, DOTA-Phe-Lys(HSG)-D-Tyr-Lys(HSG)-NH2, reference compound] ({DOTA}-FK([Gly-Suc-NH(2-(imidazol-4-yl)ethyl)])[dY]K([Gly-Suc-NH(2-(imidazol-4-yl)ethyl)])-NH2), in data set [3], the tissue uptake at 24 h amounted to 0.28 %ID/g. Besides, the “decomposed in mouse serum” value in data set [2] is recorded as approximately 5%.

Broadly, the tissue uptake is the percentage of the injected dose found per gram of tissue.
